Results: US20240092758A1, “IMIDAZOLO INDAZOLE COMPOUNDS AS JAK INHIBITORS” (Theravance Biopharma R&D IP, LLC, priority 2021, published 2024)

Assays:
JAK1 = JAK1 (Homo sapiens (Human), UniProt P23458); assay: Biochemical JAK kinase assay (LanthaScreen), JAK1; conditions: for Ki: read-out: JAK1 pKi (converted)
Procedure, shortened: (§1)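 LanthaScreen format: phospho-STAT1 (pTyr701) detected with 2 nM Tb antibody after 10 mM EDTA quench. Kinase step used Km-level ATP and 200 nM STAT1 peptide, 1 h at ambient after 1 h pre-incubation. Inhibition fitted to IC50, reported as pKi.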

JAK2 = JAK2 (Homo sapiens (Human), UniProt O60674); assay: Biochemical JAK kinase assay (LanthaScreen), JAK2; conditions: for Ki: read-out: JAK2 pKi (converted)
Procedure, shortened: as §1

[1] = test system: IL-13 induced STAT6 phosphorylation in BEAS-2B human lung epithelial cells; assay: Cellular JAKI potency assay (BEAS-2B); assay type: cell-based; conditions: Homo sapiens, BEAS-2B, BEAS-2B cells, read-out: BEAS2B pIC50 (converted)
Procedure, shortened: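 AlphaLISA SureFire detection of Tyr641 pSTAT6 in lysates gave IC50s (4-parameter fit, expressed as pIC50). Cells: human BEAS-2B, exposed 1 h at 37 °C to compound dose series at 0.1% DMSO, then 30 min to IL-13 added at 80 ng/mL in HEPES-buffered HBSS with BSA.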

Sequence of JAK1 (P23458 whole entry): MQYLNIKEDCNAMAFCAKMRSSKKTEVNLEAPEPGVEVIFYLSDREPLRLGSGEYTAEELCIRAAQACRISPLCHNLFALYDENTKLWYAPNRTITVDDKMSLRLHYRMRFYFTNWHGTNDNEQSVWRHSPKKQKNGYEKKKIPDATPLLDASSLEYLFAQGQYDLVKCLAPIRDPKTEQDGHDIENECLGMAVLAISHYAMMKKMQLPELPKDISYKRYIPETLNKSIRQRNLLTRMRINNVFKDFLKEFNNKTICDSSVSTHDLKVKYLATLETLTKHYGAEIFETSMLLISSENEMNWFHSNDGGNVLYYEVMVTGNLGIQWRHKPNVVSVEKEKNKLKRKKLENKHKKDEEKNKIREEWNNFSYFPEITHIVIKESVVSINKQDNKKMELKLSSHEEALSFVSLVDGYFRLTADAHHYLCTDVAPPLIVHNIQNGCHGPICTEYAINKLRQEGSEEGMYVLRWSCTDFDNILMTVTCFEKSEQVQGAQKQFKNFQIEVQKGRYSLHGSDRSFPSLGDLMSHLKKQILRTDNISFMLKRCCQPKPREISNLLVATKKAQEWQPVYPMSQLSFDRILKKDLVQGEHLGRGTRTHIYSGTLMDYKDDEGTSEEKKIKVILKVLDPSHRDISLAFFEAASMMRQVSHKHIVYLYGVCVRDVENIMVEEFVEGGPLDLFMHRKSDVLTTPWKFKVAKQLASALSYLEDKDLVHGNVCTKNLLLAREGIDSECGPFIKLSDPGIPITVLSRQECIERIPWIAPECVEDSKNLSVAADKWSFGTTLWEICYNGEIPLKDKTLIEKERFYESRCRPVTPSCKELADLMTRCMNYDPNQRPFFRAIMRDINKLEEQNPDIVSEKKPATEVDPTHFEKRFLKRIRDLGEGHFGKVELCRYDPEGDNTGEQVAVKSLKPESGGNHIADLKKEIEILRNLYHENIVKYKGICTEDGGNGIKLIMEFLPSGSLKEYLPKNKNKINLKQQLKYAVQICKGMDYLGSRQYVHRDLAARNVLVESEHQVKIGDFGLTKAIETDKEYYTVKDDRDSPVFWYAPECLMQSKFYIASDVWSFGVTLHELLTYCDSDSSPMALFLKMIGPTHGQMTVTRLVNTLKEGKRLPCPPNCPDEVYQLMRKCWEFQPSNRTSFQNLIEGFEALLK
Sequence of JAK2 (O60674 whole entry): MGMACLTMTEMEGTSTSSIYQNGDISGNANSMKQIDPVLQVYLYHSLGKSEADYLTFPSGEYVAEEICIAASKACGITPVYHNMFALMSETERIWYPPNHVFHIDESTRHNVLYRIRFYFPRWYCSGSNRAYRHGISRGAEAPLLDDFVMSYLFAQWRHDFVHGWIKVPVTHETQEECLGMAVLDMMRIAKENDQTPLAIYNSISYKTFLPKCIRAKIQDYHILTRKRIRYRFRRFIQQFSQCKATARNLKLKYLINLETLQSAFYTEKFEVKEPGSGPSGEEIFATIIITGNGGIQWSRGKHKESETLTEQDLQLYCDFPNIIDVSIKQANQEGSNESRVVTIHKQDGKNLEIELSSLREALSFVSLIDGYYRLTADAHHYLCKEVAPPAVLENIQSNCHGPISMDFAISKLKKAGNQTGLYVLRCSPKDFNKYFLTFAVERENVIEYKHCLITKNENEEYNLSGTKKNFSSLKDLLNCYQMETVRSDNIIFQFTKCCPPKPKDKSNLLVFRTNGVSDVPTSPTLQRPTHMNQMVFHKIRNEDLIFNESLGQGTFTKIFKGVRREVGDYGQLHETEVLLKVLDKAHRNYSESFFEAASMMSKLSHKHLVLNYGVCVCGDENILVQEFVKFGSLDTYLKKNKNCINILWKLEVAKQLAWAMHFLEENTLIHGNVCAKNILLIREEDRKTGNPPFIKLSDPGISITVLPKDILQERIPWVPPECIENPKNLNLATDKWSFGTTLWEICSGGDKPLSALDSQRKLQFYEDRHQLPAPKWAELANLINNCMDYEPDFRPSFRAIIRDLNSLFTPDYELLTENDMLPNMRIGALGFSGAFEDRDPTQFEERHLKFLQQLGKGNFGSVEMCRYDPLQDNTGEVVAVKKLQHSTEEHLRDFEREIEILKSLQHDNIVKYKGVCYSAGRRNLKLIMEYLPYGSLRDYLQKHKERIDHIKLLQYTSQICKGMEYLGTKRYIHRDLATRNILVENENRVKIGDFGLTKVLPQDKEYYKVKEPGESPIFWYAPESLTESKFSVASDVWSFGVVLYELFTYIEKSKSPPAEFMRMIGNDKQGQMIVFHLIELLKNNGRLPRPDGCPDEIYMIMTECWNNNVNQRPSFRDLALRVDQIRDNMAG

SMILES	Ki (JAK1) [nM]	Ki (JAK2) [nM]	IC50 [1] [nM]	JAK1 pKi (JAK1)	JAK2 pKi (JAK2)
CCc1cc(O)ccc1-c1ccc2c(-c3nc(C4=CCN(CCc5ccccc5)C4)c[nH]3)n[nH]c2c1 [Example 141]	0.1 to 1	0.1 to 1	100 to 316		
CCc1cc(O)ccc1-c1ccc2c(-c3nc(C4=CCN([C@H]5CC[C@](C)(O)CC5)C4)c[nH]3)n[nH]c2c1F [Example 330]		0.1 to 1	10 to 31.6	A (A represents a pKi value ≥10 (Ki≤0.1 nM))	
CCc1cc(O)ccc1-c1ccc2c(-c3nc(C4=CCN(C[C@H]5COCCN5)CC4)c[nH]3)n[nH]c2c1F [Example 190]	0.1 to 1	0.1 to 1	31.6 to 100		
CCc1cc(O)ccc1-c1ccc2c(-c3nc(C4=CCN(CC(=O)NC(C)(C)C)CC4)c[nH]3)n[nH]c2c1F [Example 83]	1 to 10	0.1 to 1	31.6 to 100		
CCc1cc(O)ccc1-c1ccc2c(-c3nc(C4=CCN(C(=O)CCN(C)C)C4)c[nH]3)n[nH]c2c1F [Example 363]	0.1 to 1		31.6 to 100		A (A represents a pKi value ≥10 (Ki≤0.1 nM))
CCc1cc(O)ccc1-c1ccc2c(-c3nc(C4=CCN(CC(=O)NC)C4)c[nH]3)n[nH]c2c1 [Example 93]	0.1 to 1		3.16 to 10		A (A represents a pKi value ≥10 (Ki≤0.1 nM))
CCc1cc(O)ccc1-c1ccc2c(-c3nc(C4=CCN(C(C)=O)CC4)c[nH]3)n[nH]c2c1 [Example 147]	0.1 to 1	0.1 to 1	10 to 31.6		
CCc1cc(O)ccc1-c1ccc2c(-c3nc(C4=CCN(C5CCC(O)CC5)CC4)c[nH]3)n[nH]c2c1F (stereo not drawn) [Example 121]	0.1 to 1		10 to 31.6		A (A represents a pKi value ≥10 (Ki≤0.1 nM))
CCc1cc(O)ccc1-c1ccc2c(-c3nc(C4=CCN(C5CCC5)C4)c[nH]3)n[nH]c2c1F [Example 303]			10 to 31.6	A (A represents a pKi value ≥10 (Ki≤0.1 nM))	A (A represents a pKi value ≥10 (Ki≤0.1 nM))
CCc1cc(O)ccc1-c1ccc2c(-c3nc(C4=CCN(CCC(C)(C)O)C4)c[nH]3)n[nH]c2c1F [Example 55]			3.16 to 10	A (A represents a pKi value ≥10 (Ki≤0.1 nM))	A (A represents a pKi value ≥10 (Ki≤0.1 nM))
CCc1cc(O)ccc1-c1ccc2c(-c3nc(C4=CCN(CCN5CCNC5=O)CC4)c[nH]3)n[nH]c2c1 [Example 118]			31.6 to 100	A (A represents a pKi value ≥10 (Ki≤0.1 nM))	A (A represents a pKi value ≥10 (Ki≤0.1 nM))
CCc1cc(O)ccc1-c1ccc2c(-c3nc(C4=CCNC5(CC5)C4)c[nH]3)n[nH]c2c1 [Example 343]	0.1 to 1	0.1 to 1	10 to 31.6		
CCc1cc(O)ccc1-c1ccc2c(-c3nc(C4=CC[C@H](C)N(CCS(=O)(=O)NC)C4)c[nH]3)n[nH]c2c1F [Example 277]	1 to 10	0.1 to 1	31.6 to 100		
CCc1cc(O)ccc1-c1ccc2c(-c3nc(C4=CCN(C5CCOCC5)C4)c[nH]3)n[nH]c2c1 [Example 72]			3.16 to 10	A (A represents a pKi value ≥10 (Ki≤0.1 nM))	A (A represents a pKi value ≥10 (Ki≤0.1 nM))
CCc1cc(O)ccc1-c1ccc2c(-c3nc(C4=CCN(S(C)(=O)=O)C4)c[nH]3)n[nH]c2c1F [Example 172]	1 to 10	0.1 to 1	10 to 31.6		
CCc1cc(O)ccc1-c1ccc2c(-c3nc(C4=CCN(C(=O)NC)CC4)c[nH]3)n[nH]c2c1 [Example 150]	0.1 to 1	0.1 to 1	10 to 31.6		
CCc1cc(O)ccc1-c1ccc2c(-c3nc(C4=C[C@H](CO)NC4)c[nH]3)n[nH]c2c1 [Example 239]	0.1 to 1	0.1 to 1	31.6 to 100		
CCc1cc(O)ccc1-c1ccc2c(-c3nc(C4=CCN(Cc5ccn[nH]5)C4)c[nH]3)n[nH]c2c1 [Example 143]			10 to 31.6	A (A represents a pKi value ≥10 (Ki≤0.1 nM))	A (A represents a pKi value ≥10 (Ki≤0.1 nM))
